In PubChem BioAssay (NCI):
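Five compound concentrations were applied to cells in 96-well plates for 48 hours; endpoints were derived by simple linear interpolation of the resulting dose-response curve. Definition used: TGI = concentration required for complete inhibition of growth.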

Assays:
Assay in all cases: NCI-60 cell line screen, 48 h
[1] = system: EKVX NSCLC
[2] = system: MDA-MB-435
[3] = system: MOLT-4 leukemia
[4] = system: SK-MEL-2 melanoma
[5] = system: ACHN renal
[6] = system: CCRF-CEM leukemia
[7] = system: UO-31 renal
[8] = system: HCT-116 colon
[9] = system: SK-MEL-5 melanoma
[10] = system: M14 melanoma
[11] = system: SF-295 CNS
[12] = system: CAKI-1 renal
[13] = system: NCI-H23 lung
[14] = system: HL-60(TB) leukemia
[15] = system: HT29 colon

| SMILES | TGI [1] | TGI [2] | TGI [3] | TGI [4] | TGI [5] | TGI [6] | TGI [7] | TGI [8] | TGI [9] | TGI [10] | TGI [11] | TGI [12] | TGI [13] | TGI [14] | TGI [15] |
| --- | --- | --- | --- | --- | --- | --- | --- | --- | --- | --- | --- | --- | --- | --- | --- |
| Cc1cccc(-c2cc(=S)c3cc(N4CCCC4)ccc3[nH]2)c1 | > 100 µM | > 100 µM | > 100 µM | > 100 µM | > 100 µM | > 100 µM | > 100 µM | > 100 µM | > 100 µM | > 100 µM | > 100 µM | > 100 µM | – | – | – |
| CC(NC(=O)OC(C)(C)C)C(=O)C(N)=O (stereo unspecified) | > 100 µM | > 100 µM | > 100 µM | > 100 µM | > 100 µM | > 100 µM | > 100 µM | > 100 µM | > 100 µM | > 100 µM | – | – | > 100 µM | > 100 µM | – |
| Clc1c(Cl)c2c(Cl)c(Cl)c1C[P+](c1ccccc1)(c1ccccc1)CC[P+](c1ccccc1)(c1ccccc1)Cc1c(Cl)c(Cl)c(c(Cl)c1Cl)C[P+](c1ccccc1)(c1ccccc1)CC[P+](c1ccccc1)(c1ccccc1)C2 | 21.7 µM | – | 10.5 µM | 6.09 µM | 17.6 µM | 9.63 µM | 21.2 µM | 9.71 µM | 3.13 µM | 16.2 µM | 12.6 µM | 33.1 µM | 5.25 µM | – | 10.3 µM |
| COC(=O)CCn1cnc2c(SC)ncnc21 | > 100 µM | > 100 µM | > 100 µM | – | > 100 µM | > 100 µM | > 100 µM | > 100 µM | > 100 µM | > 100 µM | > 100 µM | > 100 µM | > 100 µM | > 100 µM | > 100 µM |
| O=S(CCCl)c1c2ccccc2nc2ccccc12 (stereo unspecified) | > 100 µM | > 100 µM | > 100 µM | > 100 µM | > 100 µM | > 100 µM | > 100 µM | > 100 µM | – | > 100 µM | > 100 µM | 80.5 µM | > 100 µM | > 100 µM | > 100 µM |
| Cc1[nH]c(=O)nc(NCCNCCO)c1C(=O)Nc1c2ccccc2nc2ccccc12 | > 100 µM | > 100 µM | > 100 µM | > 100 µM | > 100 µM | > 100 µM | > 100 µM | > 100 µM | > 100 µM | > 100 µM | > 100 µM | > 100 µM | > 100 µM | > 100 µM | > 100 µM |
| CCCCCCCCCCCCCCCCCCOCC(CO[P+](=O)O)OCCCCCCCCCCCCCCCCCC (stereo unspecified) | > 50 µM | > 50 µM | > 50 µM | > 50 µM | – | – | – | > 50 µM | > 50 µM | > 50 µM | – | > 50 µM | – | > 50 µM | > 50 µM |
| CCOP(=O)(C=C=C(C)C)OCC | > 100 µM | > 100 µM | – | > 100 µM | > 100 µM | – | – | > 100 µM | > 100 µM | > 100 µM | > 100 µM | > 100 µM | > 100 µM | > 100 µM | > 100 µM |
| N#CC(c1cc2c(cc1Br)OCO2)N1CCOCC1 (stereo unspecified) | > 100 µM | 18.4 µM | > 100 µM | – | > 100 µM | > 100 µM | > 100 µM | > 100 µM | > 100 µM | > 100 µM | > 100 µM | > 100 µM | > 100 µM | 25.7 µM | > 100 µM |
| CC#C[I+]c1ccccc1 | 36.7 µM | – | 42.2 µM | > 100 µM | 32 µM | 18.7 µM | 97.5 µM | 35.3 µM | 48.5 µM | 37.1 µM | > 100 µM | 27.9 µM | 39.7 µM | 33.8 µM | 34.5 µM |
| CCCCCCCCCCCCCCCCOCC(COP(=O)([O-])OCC[N+](C)(C)C)OCCCCCCCCCCCCCCCC (stereo unspecified) | > 100 µM | – | > 100 µM | > 100 µM | – | > 100 µM | > 100 µM | > 100 µM | > 100 µM | – | > 100 µM | > 100 µM | > 100 µM | > 100 µM | > 100 µM |
| N/N=C1/CCCc2nonc21 | > 100 µM | > 100 µM | > 100 µM | > 100 µM | > 100 µM | > 100 µM | – | > 100 µM | > 100 µM | > 100 µM | > 100 µM | > 100 µM | > 100 µM | > 100 µM | > 100 µM |
| CCO[C@]12C[C@H](OC)[C@@]3(O)CC(C1[C@H]3O)C13C4C2[C@H](OC)C1[C@](COC)(CN4CC)[C@H](O)C[C@@H]3OC (stereo partly specified) | > 100 µM | – | > 100 µM | – | > 100 µM | > 100 µM | > 100 µM | > 100 µM | > 100 µM | > 100 µM | – | – | > 100 µM | > 100 µM | > 100 µM |
| COc1ccc(N2C(=O)C3c4[nH]c5cccc(C)c5c4C4CCC(C(C)(C)C)CC4C3C2=O)cc1 (stereo unspecified) | > 10 µM | > 10 µM | > 10 µM | > 10 µM | > 10 µM | – | > 10 µM | > 10 µM | > 10 µM | > 10 µM | > 10 µM | > 10 µM | > 10 µM | > 10 µM | > 10 µM |
